Laboratory results published in patent publication US20220323406A1, “METHODS AND COMPOSITIONS FOR DIFFERENTIATING STEM CELLS” (Massachusetts Institute of Technology, priority 2019, published 2022).

How the values were obtained:
ENR+CD organoids = test: Primary screen: ATP (CellTiter-Glo 3D, CTG) cell number/viability, 2.5-D 384-well ENR+CD organoids; settings: primary screen; for Z.CTG: standard z score;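 as to all read-outs here: compounds given at plating and again on day 3 over a 6-day differentiation from ENR+CV stem-cell-enriched precursors, ATP measured on day 6, plate median as control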
[1] = system: ENR+CD organoids (ISC to Paneth cell differentiation); test: Primary screen: basal (non-stimulated) lysozyme secretion LYZ.NS, 2.5-D 384-well ENR+CD organoid differentiation; type: cell-based, mouse
Description: (§1) High-throughput screening.

[2] = system: ENR+CD organoids (ISC to Paneth cell differentiation); test: Primary screen: CCh-stimulated lysozyme secretion LYZ.S, 2.5-D 384-well ENR+CD organoid differentiation; type: cell-based, mouse; settings: primary screen
Description: as §1

[3] = primary screen, standard z score, dose 0.08 uM
[4] = primary screen, standard z score, dose 0.40 uM
[5] = primary screen, standard z score, dose 2.00 uM
[6] = primary screen, standard z score, dose 10.00 uM
[7] = dose 0.08 uM, FC vs plate median
[8] = dose 0.40 uM, FC vs plate median
[9] = dose 2.00 uM, FC vs plate median
[10] = dose 10.00 uM, FC vs plate median

Row | Compound | Z.LYZ.NS (standard z score) ([1]; primary screen, dose 0.08 uM) | Z.LYZ.NS (standard z score) ([1]; primary screen, dose 0.40 uM) | Z.LYZ.NS (standard z score) ([1]; primary screen, dose 2.00 uM) | Z.LYZ.NS (standard z score) ([1]; primary screen, dose 10.00 uM) | Dose.FC.CTG (ENR+CD organoids; dose 0.08 uM) [log2 fold change] | Dose.FC.CTG (ENR+CD organoids; dose 0.40 uM) [log2 fold change] | Dose.FC.CTG (ENR+CD organoids; dose 2.00 uM) [log2 fold change] | Dose.FC.CTG (ENR+CD organoids; dose 10.00 uM) [log2 fold change] | Dose.FC.LYZ.NS ([1]; primary screen, dose 0.08 uM) [log2 fold change] | Dose.FC.LYZ.NS ([1]; primary screen, dose 0.40 uM) [log2 fold change] | Dose.FC.LYZ.NS ([1]; primary screen, dose 2.00 uM) [log2 fold change] | Dose.FC.LYZ.NS ([1]; primary screen, dose 10.00 uM) [log2 fold change] | Z.LYZ.NS [1, 3] | Z.LYZ.NS [1, 4] | Z.LYZ.NS [1, 5] | Z.LYZ.NS [1, 6] | Dose.FC.LYZ.S ([2]; dose 0.08 uM) [log2 fold change] | Dose.FC.LYZ.S ([2]; dose 0.40 uM) [log2 fold change] | Dose.FC.LYZ.S ([2]; dose 2.00 uM) [log2 fold change] | Dose.FC.LYZ.S ([2]; dose 10.00 uM) [log2 fold change] | also measured
1 | CC(C)c1onc(-c2c(Cl)cccc2Cl)c1COc1ccc(/C=C/c2cccc(C(=O)O)c2)c(Cl)c1 [GW4064] | 1.476 | −0.194 | 0.196 | −0.516 | – | – | – | – | – | – | – | – | – | – | – | – | – | – | – | – | Dose.FC.CTG (log2 fold change) (ENR+CD organoids; dose 0.08 uM): −0.134; Z.CTG (standard z score) (ENR+CD organoids; dose 0.08 uM): −0.320; Dose.FC.CTG (log2 fold change) (ENR+CD organoids; dose 0.40 uM): 0.140; Z.CTG (standard z score) (ENR+CD organoids; dose 0.40 uM): 0.334; Dose.FC.CTG (log2 fold change) (ENR+CD organoids; dose 2.00 uM): −0.145; Z.CTG (standard z score) (ENR+CD organoids; dose 2.00 uM): −0.346; Dose.FC.CTG (log2 fold change) (ENR+CD organoids; dose 10.00 uM): −0.157; Z.CTG (standard z score) (ENR+CD organoids; dose 10.00 uM): −0.375; Dose.FC.LYZ.NS (log2 fold change) ([1]; primary screen, dose 0.08 uM): 0.170; Dose.FC.LYZ.NS (log2 fold change) ([1]; primary screen, dose 0.40 uM): −0.022; Dose.FC.LYZ.NS (log2 fold change) ([1]; primary screen, dose 2.00 uM): 0.022; Dose.FC.LYZ.NS (log2 fold change) ([1]; primary screen, dose 10.00 uM): −0.059; Dose.FC.LYZ.S (log2 fold change) ([2]; dose 0.08 uM): 0.028; Dose.FC.LYZ.S (log2 fold change) ([2]; dose 0.40 uM): 0.097; Dose.FC.LYZ.S (log2 fold change) ([2]; dose 2.00 uM): 0.000; Dose.FC.LYZ.S (log2 fold change) ([2]; dose 10.00 uM): −0.071
2 | CCC(CC)CC1(C(=O)Nc2ccccc2SC(=O)C(C)C)CCCCC1 [Dalcetrapib (JTT-705, RO4607381)] | – | – | – | – | 0.112 | −0.006 | 0.079 | 0.136 | 0.055 | −0.037 | −0.034 | −0.074 | 0.475 | −0.324 | −0.296 | −0.643 | 0.049 | 0.104 | 0.098 | −0.113 | Z.CTG (ENR+CD organoids; dose 0.08 uM): 0.268; Z.CTG (ENR+CD organoids; dose 0.40 uM): −0.014; Z.CTG (ENR+CD organoids; dose 2.00 uM): 0.188; Z.CTG (ENR+CD organoids; dose 10.00 uM): 0.324
3 | C[C@@H]1CCN(C(=O)CC#N)C[C@@H]1N(C)c1ncnc2[nH]ccc12 [Tofacitinib (CP-690550, Tasocitinib)] | −0.146 | −0.132 | −0.061 | −0.036 | 0.130 | 0.249 | 0.117 | 0.236 | −0.017 | −0.015 | −0.007 | −0.004 | – | – | – | – | 0.022 | 0.010 | 0.025 | 0.010 | Z.CTG (standard z score) (ENR+CD organoids; dose 0.08 uM): 0.312; Z.CTG (standard z score) (ENR+CD organoids; dose 0.40 uM): 0.595; Z.CTG (standard z score) (ENR+CD organoids; dose 2.00 uM): 0.278; Z.CTG (standard z score) (ENR+CD organoids; dose 10.00 uM): 0.563
4 | COc1cccc(C=NCCN=Cc2cccc(OC)c2[O-])c1[O-].[Cl-].[Mn+3] [EUK 134] | – | – | – | – | −0.015 | −0.162 | 0.091 | −0.024 | 0.068 | 0.003 | 0.028 | −0.085 | 0.594 | 0.026 | 0.247 | −0.741 | 0.025 | 0.057 | −0.034 | −0.132 | Z.CTG (ENR+CD organoids; dose 0.08 uM): −0.035; Z.CTG (ENR+CD organoids; dose 0.40 uM): −0.387; Z.CTG (ENR+CD organoids; dose 2.00 uM): 0.217; Z.CTG (ENR+CD organoids; dose 10.00 uM): −0.057
5 | C[C@]12C=CC(=O)N[C@@H]1CC[C@@H]1[C@@H]2CC[C@]2(C)[C@@H](C(=O)Nc3cc(C(F)(F)F)ccc3C(F)(F)F)CC[C@@H]12 [Dutasteride] | – | – | – | – | 0.057 | −0.266 | −0.098 | −0.057 | 0.065 | 0.006 | −0.105 | −0.092 | 0.568 | 0.052 | −0.915 | −0.799 | 0.001 | −0.054 | −0.074 | −0.151 | –
6 | Nc1cccc2c1CN(C1CCC(=O)NC1=O)C2=O (stereo not drawn) [Lenalidomide (CC-5013)] | 1.283 | 0.863 | 0.615 | −0.360 | – | – | – | – | – | – | – | – | – | – | – | – | – | – | – | – | Dose.FC.CTG (log2 fold change) (ENR+CD organoids; dose 0.08 uM): 0.046; Z.CTG (standard z score) (ENR+CD organoids; dose 0.08 uM): 0.110; Dose.FC.CTG (log2 fold change) (ENR+CD organoids; dose 0.40 uM): −0.016; Z.CTG (standard z score) (ENR+CD organoids; dose 0.40 uM): −0.037; Dose.FC.CTG (log2 fold change) (ENR+CD organoids; dose 2.00 uM): −0.250; Z.CTG (standard z score) (ENR+CD organoids; dose 2.00 uM): −0.596; Dose.FC.CTG (log2 fold change) (ENR+CD organoids; dose 10.00 uM): −0.316; Z.CTG (standard z score) (ENR+CD organoids; dose 10.00 uM): −0.754; Dose.FC.LYZ.NS (log2 fold change) ([1]; primary screen, dose 0.08 uM): 0.147; Dose.FC.LYZ.NS (log2 fold change) ([1]; primary screen, dose 0.40 uM): 0.099; Dose.FC.LYZ.NS (log2 fold change) ([1]; primary screen, dose 2.00 uM): 0.071; Dose.FC.LYZ.NS (log2 fold change) ([1]; primary screen, dose 10.00 uM): −0.041; Dose.FC.LYZ.S (log2 fold change) ([2]; dose 0.08 uM): 0.099; Dose.FC.LYZ.S (log2 fold change) ([2]; dose 0.40 uM): 0.176; Dose.FC.LYZ.S (log2 fold change) ([2]; dose 2.00 uM): 0.025; Dose.FC.LYZ.S (log2 fold change) ([2]; dose 10.00 uM): −0.045
7 | COc1ccccc1Oc1c(NS(=O)(=O)c2ccc(C(C)(C)C)cc2)nc(-c2ncccn2)nc1OCCO [Bosentan Hydrate] | 0.785 | 0.589 | 0.337 | 0.508 | 0.204 | 0.207 | 0.121 | 0.085 | 0.090 | 0.068 | 0.039 | 0.058 | – | – | – | – | 0.145 | 0.100 | 0.014 | 0.045 | –
8 | NC(=O)C1CCCc2c1[nH]c1ccc(Cl)cc21 (stereo not drawn) [EX 527 (Selisistat)] | – | – | – | – | 0.240 | 0.174 | 0.341 | 0.320 | 0.100 | 0.059 | 0.030 | 0.057 | 0.871 | 0.512 | 0.261 | 0.494 | 0.062 | 0.047 | −0.051 | −0.011 | Z.CTG (ENR+CD organoids; dose 0.08 uM): 0.574; Z.CTG (ENR+CD organoids; dose 0.40 uM): 0.415; Z.CTG (ENR+CD organoids; dose 2.00 uM): 0.814; Z.CTG (ENR+CD organoids; dose 10.00 uM): 0.766
9 | CCCCCCCCc1ccc(CCC(N)(CO)CO)cc1.Cl [Fingolimod (FTY720) HCl] | – | – | – | – | −0.080 | 0.103 | −0.468 | −1.304 | −0.054 | 0.071 | 0.021 | −0.225 | −0.471 | 0.616 | 0.186 | −1.961 | −0.046 | 0.077 | −0.060 | −0.362 | Z.CTG (ENR+CD organoids; dose 0.08 uM): −0.191; Z.CTG (ENR+CD organoids; dose 0.40 uM): 0.245; Z.CTG (ENR+CD organoids; dose 2.00 uM): −1.119; Z.CTG (ENR+CD organoids; dose 10.00 uM): −3.116
10 | Maraviroc | 0.411 | 0.358 | 0.269 | 0.759 | – | – | – | – | – | – | – | – | – | – | – | – | – | – | – | – | Dose.FC.CTG (log2 fold change) (ENR+CD organoids; dose 0.08 uM): −0.084; Dose.FC.CTG (log2 fold change) (ENR+CD organoids; dose 0.40 uM): 0.079; Dose.FC.CTG (log2 fold change) (ENR+CD organoids; dose 2.00 uM): −0.009; Dose.FC.CTG (log2 fold change) (ENR+CD organoids; dose 10.00 uM): 0.139; Dose.FC.LYZ.NS (log2 fold change) ([1]; primary screen, dose 0.08 uM): 0.047; Dose.FC.LYZ.NS (log2 fold change) ([1]; primary screen, dose 0.40 uM): 0.041; Dose.FC.LYZ.NS (log2 fold change) ([1]; primary screen, dose 2.00 uM): 0.031; Dose.FC.LYZ.NS (log2 fold change) ([1]; primary screen, dose 10.00 uM): 0.087; Dose.FC.LYZ.S (log2 fold change) ([2]; dose 0.08 uM): 0.054; Dose.FC.LYZ.S (log2 fold change) ([2]; dose 0.40 uM): 0.195; Dose.FC.LYZ.S (log2 fold change) ([2]; dose 2.00 uM): 0.005; Dose.FC.LYZ.S (log2 fold change) ([2]; dose 10.00 uM): 0.077
11 | O=C(O)Cn1nnc(-c2cc(N3CCC(Oc4cc(F)ccc4Br)CC3)no2)n1 [MK-8245] | – | – | – | – | – | – | – | – | – | – | – | – | – | – | – | – | – | – | – | – | Dose.FC.CTG (ENR+CD organoids; [7]): 0.156 log2 fold change; Dose.FC.CTG (ENR+CD organoids; [8]): −0.113 log2 fold change; Dose.FC.CTG (ENR+CD organoids; [9]): −0.021 log2 fold change; Dose.FC.CTG (ENR+CD organoids; [10]): −0.263 log2 fold change; Z.LYZ.NS ([1]; primary screen, dose 0.08 uM, standard z score): 0.200; Z.LYZ.NS ([1]; primary screen, dose 0.40 uM, standard z score): 0.273; Z.LYZ.NS ([1]; primary screen, dose 2.00 uM, standard z score): −0.315; Z.LYZ.NS ([1]; primary screen, dose 10.00 uM, standard z score): −0.670; Dose.FC.LYZ.NS ([1]; primary screen; dose 0.08 uM; FC vs plate median): 0.023 log2 fold change; Dose.FC.LYZ.NS ([1]; primary screen; dose 0.40 uM; FC vs plate median): 0.031 log2 fold change; Dose.FC.LYZ.NS ([1]; primary screen; dose 2.00 uM; FC vs plate median): −0.036 log2 fold change; Dose.FC.LYZ.NS ([1]; primary screen; dose 10.00 uM; FC vs plate median): −0.077 log2 fold change; Dose.FC.LYZ.S [2, 7]: 0.069 log2 fold change; Dose.FC.LYZ.S [2, 8]: 0.185 log2 fold change; Dose.FC.LYZ.S [2, 9]: −0.062 log2 fold change; Dose.FC.LYZ.S [2, 10]: −0.123 log2 fold change
